Patent US12115182B2, “Adenosine A2A agonists for the treatment of cytokine storm syndrome” (priority 2021, dated 2024)
Entries after “also recorded” stand apart in the source; their conditions may differ.

Assays:
[1] = test system: plasma cytokines/chemokines; experiment: Plasma cytokines/chemokines in lung transplant recipients (11-plex); type: in vivo, human
Method: (§1) Blood was drawn for cytokine/chemokine, damage associated molecular patterns (DAMPs) at the following different timepoints: 1) before infusion (baseline), 2) 15 minutes before reperfusion of the 1st lung, 3) 30 minutes after reperfusion of 1st lung, 4) 30 minutes after reperfusion of 2nd lung, and 5) 6 hours after reperfusion of 1st lung.
(§2) The cytokines/chemokines, HMGB1 and sRAGE were determined at The University of Virginia Flow Cytometry Core (RRID: SCR 017829) as previously described (LAU et al., J Heart Lung Transplant, (2020), 39:563-570). The customized 11-plex cytokine panel detects IL-1, IL-2, IL-6, IL-7, IL-8, IL-10, IL-12P40, IL-12P70, IL-17, TNFa, and IFN-γ (Millipore Sigma, Burlington, MA).
(§3) Statistical differences of cytokine/chemokines, heart rates and blood pressures between groups were determined by two-way ANOVA followed by Tukey's multiple comparison test (GraphPad Prism 9.0). The PGD scores were analyzed by chi-squared test. The intubation times and hospital LOS, ICU LOS were analyzed by ANOVA of log and Kruskal-Wallis. Data was reported as means±SD. P value equal or less than 0.05 was considered significant.

[2] = test system: lung transplant recipients; experiment: Regadenoson infusion in lung transplant recipients: clinical outcomes, hemodynamics, safety; type: in vivo
Method: The rational for dose selection was published in our previous publication (LAU et al., J Heart Lung Transplant, (2020), 39:563-570. We enrolled 4 additional lung transplantation patients that were treated with regadenoson at 1.44 ug/kg/hour for 12 hours. Our previous publication, infusion of regadenoson (1.44 ug/kg/hour for 12 hours) was safe in 10 lung transplantation patients. In the lung transplantation population, the median peak plasma levels of regadenoson infused were 1.68 ng/ml (range 1.2 to 1.9 ng/ml). Based on this preliminary result, we modified our protocol to a high dose infusion at the 2.88 ug/kg/hour for 12 hours in the last three lung transplantation recipients. FDA, NIH/NHLBI designated DSMB and institutional IRB approved our modification. The regadenoson infusion started at the time of skin incision, continued throughout the transplant procedure and into the immediate postoperative period for a total duration of 12 hours. Enrollment of bilateral lung transplant control patients
Primary end-points included dose-limiting toxicities and 30-day mortality. Secondary outcomes included PGD scores evaluated at 24, 48, and 72 hours, ICU length of stay, hospital length of stay, need for post-transplant extracorporeal membrane oxygenation, duration of mechanical ventilation post-operatively, and 12-month survival. Clinical parameters including blood pressure, heart rate, mean arterial pressure, pulmonary arterial pressure, were monitored and collected. Continuous variables are listed as mean and standard deviation, whereas categorical variables are presented as counts.
as §3

[3] = test system: plasma proinflammatory cytokines/chemokines; experiment: Luminex plasma cytokines/chemokines in regadenoson-treated COVID-19 patients; type: in vivo, human
[4] = test system: soluble receptor for advanced glycation end-products (sRAGE); experiment: Plasma sRAGE in lung transplant recipients; type: in vivo, human
Method: as §1, §2
We designed this trial mainly as a Phase I safety and feasibility study that would allow an optimal infusional dose to be determined based on dose-limiting toxicities identified in lung transplant recipients. We also evaluated the potential efficacy by clinical outcomes and the lab evaluation of various cytokines/chemokines, DAMPs and enzymes. […] HMGB1 and sRAGE levels were measured using a customized human Cytokine/Chemokine multiplex immunoassay (Millipore Sigma, Burlington, MA) at The University of Virginia Flow Cytometry Core (RRID: SCR_01 7829) as previously described (LAU et al., J Heart Lung Transplant, (2020), 39:563-570).

CNC(=O)c1cnn(-c2nc(N)c3ncn([C@@H]4O[C@H](CO)[C@@H](O)[C@H]4O)c3n2)c1 [Regadenoson]
transplant-induced elevation of TNF-α ([1]; 30 minutes after reperfusion of 1st lung, low dose p=0.071, high dose p=0.154): trended toward reducing | transplantation-induced plasma levels of IL-6 ([1]; 30 minutes after reperfusion of 2nd lung, low dose p=0.041, high dose p=0.007 vs control): significantly inhibited | plasma IL-10 ([1]; low dose infusion, p=0.078): trended toward increasing | plasma levels of IL-8 ([1]; low dose, 30 minutes after reperfusion of 2nd lung, p=0.032): significantly reduced | PGD scores at 24 hours post transplantation ([2]; 1.44 ug/kg/h vs control patients, p=0.024): significantly improved | drug related serious adverse events or dose limiting toxicities ([2]; 14 low dose-treated (1.44 ug/kg/h) and 3 high dose-treated (2.88 ug/kg/h) recipients): no drug related serious adverse events or dose limiting toxicities were observed | PGD scores at 24 hours, 48 and 72 hours ([2]; both 1.44 and 2.88 ug/kg/h groups vs control patients): also improved when compared with control patients but did not reach significance | blood pressure, heart rate, mean arterial pressure and pulmonary arterial pressure ([2]; during regadenoson infusion for 12 hours, P>0.05): did not significantly alter | seizure ([2]; one subject, may not directly relate to regadenoson infusion): A seizure was observed at the 36 hours post regadenoson infusion in one of the subjects | hospital length of stay (LOS) and ICU LOS ([2]; vs control patients): reduced, but not significantly altered | intubation time ([2]; vs control patients): trended to decrease | measured cytokines reduced ([3]; 14-plex Luminex panel, after 4 hours of regadenoson infusion): Twelve of the fourteen | levels of 13 pro-inflammatory cytokines, ratio over baseline ([3]; 30 minutes after start of RA infusion): very little effect | pro-inflammatory cytokines reduced, ratio over baseline ([3]; 4.5 hours after start of RA infusion): 11 of 13 | transplantation-induced plasma levels of sRAGE ([4]; 30 minutes post 1st lung reperfusion (low dose) and 30 minutes post 2nd lung reperfusion (low and high dose), P<0.0001 vs control): significantly diminished; also recorded: significantly reduced | plasma sRAGE level ([4]; high dose, 30 minutes post the 1st lung reperfusion, P=0.0656): decreased in trend
